Experimental data published in PubChem BioAssay AID1259407 (Chemical Carcinogenesis Research Information System (CCRIS), 2018).
The source made the active and inactive calls. How the calls were made is not given here.

Test system: CCRIS mutagenicity, Ames/micronucleus/aberration tests
Experiment: CCRIS mutagenicity studies
[1] = Test System: AMES SALMONELLA TYPHIMURIUM, Strain/Indicator: TA98, Metabolic Activation: NONE, Method: PREINCUBATION
[2] = Test System: AMES SALMONELLA TYPHIMURIUM, Strain/Indicator: TA100, Metabolic Activation: NONE, Method: PREINCUBATION
[3] = Test System: AMES SALMONELLA TYPHIMURIUM, Strain/Indicator: TA1537, Metabolic Activation: NONE, Method: PREINCUBATION
[4] = Test System: AMES SALMONELLA TYPHIMURIUM, Strain/Indicator: TA98, Metabolic Activation: NONE, Method: STANDARD PLATE
[5] = Test System: AMES SALMONELLA TYPHIMURIUM, Strain/Indicator: TA100, Metabolic Activation: NONE, Method: STANDARD PLATE
[6] = Test System: AMES SALMONELLA TYPHIMURIUM, Strain/Indicator: TA1535, Metabolic Activation: NONE, Method: STANDARD PLATE
[7] = Test System: AMES SALMONELLA TYPHIMURIUM, Strain/Indicator: TA1537, Metabolic Activation: NONE, Method: STANDARD PLATE

For `OCCOCCO`, the mutagenic call (Test System: AMES SALMONELLA TYPHIMURIUM, Strain/Indicator: TA97A, Metabolic Activation: NONE) was “inactive; negative”, the mutagenic call (Test System: AMES SALMONELLA TYPHIMURIUM, Strain/Indicator: TA97A, Metabolic Activation: RAT, LIVER, S-9, AROCLOR 1254) was “inactive; negative” and the mutagenic call (Test System: AMES SALMONELLA TYPHIMURIUM, Strain/Indicator: TA98, Metabolic Activation: HAMSTER, LIVER, S-9, AROCLOR 1254 (10%), Method: PREINCUBATION) was “inactive; negative”. The mutagenic call (Test System: AMES SALMONELLA TYPHIMURIUM, Strain/Indicator: TA98, Metabolic Activation: NONE) was “inactive; negative”, the mutagenic call [1] was “inactive; negative” and the mutagenic call (Test System: AMES SALMONELLA TYPHIMURIUM, Strain/Indicator: TA98, Metabolic Activation: RAT, LIVER, S-9, AROCLOR 1254) was “inactive; negative”. For the same compound, the mutagenic call (Test System: AMES SALMONELLA TYPHIMURIUM, Strain/Indicator: TA98, Metabolic Activation: RAT, LIVER, S-9, AROCLOR 1254 (10%), Method: PREINCUBATION) was “inactive; negative”, the mutagenic call (Test System: AMES SALMONELLA TYPHIMURIUM, Strain/Indicator: TA100, Metabolic Activation: HAMSTER, LIVER, S-9, AROCLOR 1254 (10%), Method: PREINCUBATION) was “inactive; negative” and the mutagenic call (Test System: AMES SALMONELLA TYPHIMURIUM, Strain/Indicator: TA100, Metabolic Activation: NONE) was “inactive; negative”. The mutagenic call [2] was “inactive; negative”, the mutagenic call (Test System: AMES SALMONELLA TYPHIMURIUM, Strain/Indicator: TA100, Metabolic Activation: RAT, LIVER, S-9, AROCLOR 1254) was “inactive; negative” and the mutagenic call (Test System: AMES SALMONELLA TYPHIMURIUM, Strain/Indicator: TA100, Metabolic Activation: RAT, LIVER, S-9, AROCLOR 1254 (10%), Method: PREINCUBATION) was “inactive; negative”. For the same compound, the mutagenic call (Test System: AMES SALMONELLA TYPHIMURIUM, Strain/Indicator: TA102, Metabolic Activation: NONE) was “inactive; negative”, the mutagenic call (Test System: AMES SALMONELLA TYPHIMURIUM, Strain/Indicator: TA102, Metabolic Activation: RAT, LIVER, S-9, AROCLOR 1254) was “inactive; negative” and the mutagenic call (Test System: AMES SALMONELLA TYPHIMURIUM, Strain/Indicator: TA1535, Metabolic Activation: HAMSTER, LIVER, S-9, AROCLOR 1254 (10%), Method: PREINCUBATION) was “inactive; negative”. The mutagenic call (Test System: AMES SALMONELLA TYPHIMURIUM, Strain/Indicator: TA1535, Metabolic Activation: NONE, Method: PREINCUBATION) was “inactive; negative”, the mutagenic call (Test System: AMES SALMONELLA TYPHIMURIUM, Strain/Indicator: TA1535, Metabolic Activation: RAT, LIVER, S-9, AROCLOR 1254 (10%), Method: PREINCUBATION) was “inactive; negative” and the mutagenic call (Test System: AMES SALMONELLA TYPHIMURIUM, Strain/Indicator: TA1537, Metabolic Activation: HAMSTER, LIVER, S-9, AROCLOR 1254 (10%), Method: PREINCUBATION) was “inactive; negative”. For the same compound, the mutagenic call [3] was “inactive; negative” and the mutagenic call (Test System: AMES SALMONELLA TYPHIMURIUM, Strain/Indicator: TA1537, Metabolic Activation: RAT, LIVER, S-9, AROCLOR 1254 (10%), Method: PREINCUBATION) was “inactive; negative”.
`CN(C)CCCCl` was tested, and the mutagenic call (Test System: AMES SALMONELLA TYPHIMURIUM, Strain/Indicator: TA98, Metabolic Activation: HAMSTER, LIVER, S-9, AROCLOR 1254, Method: STANDARD PLATE) was “inactive; negative”, the mutagenic call [4] was “inactive; negative” and the mutagenic call (Test System: AMES SALMONELLA TYPHIMURIUM, Strain/Indicator: TA98, Metabolic Activation: RAT, LIVER, S-9, AROCLOR 1254, Method: STANDARD PLATE) was “inactive; negative”. For the same compound, the mutagenic call (Test System: AMES SALMONELLA TYPHIMURIUM, Strain/Indicator: TA100, Metabolic Activation: HAMSTER, LIVER, S-9, AROCLOR 1254, Method: STANDARD PLATE) was “active; positive”, the mutagenic call [5] was “active; positive” and the mutagenic call (Test System: AMES SALMONELLA TYPHIMURIUM, Strain/Indicator: TA100, Metabolic Activation: RAT, LIVER, S-9, AROCLOR 1254, Method: STANDARD PLATE) was “active; positive”. The mutagenic call (Test System: MOUSE LYMPHOMA, Strain/Indicator: L5178Y (TK+/TK-), Metabolic Activation: NONE, Method: SUSPENSION/PLATE) was “inactive; positive. reevaluation of results: negative” and the mutagenic call (Test System: MOUSE LYMPHOMA, Strain/Indicator: L5178Y (TK+/TK-), Metabolic Activation: RAT, LIVER, S-9, AROCLOR 1254, Method: SUSPENSION/PLATE) was “active; positive. reevaluation of results: inconclusive”.
With `Nc1nccc2[nH]c3ccccc3c12` the mutagenic call [3] was “active; positive”.
`Cc1cccc(OCC(O)CNC(C)(C)C)c1C` (stereo not drawn) was tested, and the mutagenic call [4] was “inactive; negative”, the mutagenic call (Test System: AMES SALMONELLA TYPHIMURIUM, Strain/Indicator: TA98, Metabolic Activation: S-9, Method: STANDARD PLATE) was “inactive; negative” and the mutagenic call [5] was “inactive; negative”. For the same compound, the mutagenic call (Test System: AMES SALMONELLA TYPHIMURIUM, Strain/Indicator: TA100, Metabolic Activation: S-9, Method: STANDARD PLATE) was “inactive; negative”, the mutagenic call [6] was “inactive; negative” and the mutagenic call (Test System: AMES SALMONELLA TYPHIMURIUM, Strain/Indicator: TA1535, Metabolic Activation: S-9, Method: STANDARD PLATE) was “inactive; negative”. The mutagenic call [7] was “inactive; negative”, the mutagenic call (Test System: AMES SALMONELLA TYPHIMURIUM, Strain/Indicator: TA1537, Metabolic Activation: S-9, Method: STANDARD PLATE) was “inactive; negative” and the mutagenic call (Test System: AMES SALMONELLA TYPHIMURIUM, Strain/Indicator: TA1538, Metabolic Activation: NONE, Method: STANDARD PLATE) was “inactive; negative”. For the same compound, the mutagenic call (Test System: AMES SALMONELLA TYPHIMURIUM, Strain/Indicator: TA1538, Metabolic Activation: S-9, Method: STANDARD PLATE) was “inactive; negative”, the mutagenic call (Test System: E. COLI WP2, Strain/Indicator: WP2 UVRA, Metabolic Activation: NONE, Method: STANDARD PLATE) was “inactive; negative” and the mutagenic call (Test System: E. COLI WP2, Strain/Indicator: WP2 UVRA, Metabolic Activation: S-9, Method: STANDARD PLATE) was “inactive; negative”.
For `S=P(N1CC1)(N1CC1)N1CC1`, the mutagenic call (Test System: AMES SALMONELLA TYPHIMURIUM, Strain/Indicator: TA98, Metabolic Activation: HAMSTER, LIVER, S-9, AROCLOR 1254 (30%), Method: PREINCUBATION) was “inactive; negative”, the mutagenic call [1] was “inactive; negative” and the mutagenic call [4] was “inactive; negative”. For the same compound, the mutagenic call (Test System: AMES SALMONELLA TYPHIMURIUM, Strain/Indicator: TA98, Metabolic Activation: RAT, LIVER, S-9, AROCLOR 1254 (30%), Method: PREINCUBATION) was “inactive; negative”, the mutagenic call (Test System: AMES SALMONELLA TYPHIMURIUM, Strain/Indicator: TA100, Metabolic Activation: HAMSTER, LIVER, S-9, AROCLOR 1254 (30%), Method: PREINCUBATION) was “active; positive” and the mutagenic call [2] was “active; positive”. The mutagenic call [5] was “active; positive”, the mutagenic call (Test System: AMES SALMONELLA TYPHIMURIUM, Strain/Indicator: TA100, Metabolic Activation: RAT, LIVER, S-9, AROCLOR 1254 (30%), Method: PREINCUBATION) was “active; positive” and the mutagenic call [6] was “active; positive”. The mutagenic call [7] was “inactive; negative”, the mutagenic call (Test System: CHINESE HAMSTER V-79, Strain/Indicator: V-79/6-THIOGUANINE, Metabolic Activation: NONE, Method: FLASK ASSAY) was “inactive; negative” and the mutagenic call (Test System: E. COLI, Strain/Indicator: WP2 (HCR), Metabolic Activation: NONE, Method: STANDARD PLATE) was “active; positive”.
